According to US20060029989A1, “Targeting cells having Mad2 mutation for treatment and/or prevention of disease” (Regents of the University of California, priority 1999, published 2006):

Legend:
[1] = system: established yeast models (mutated MAD1/MAD2 and secondary genes); test: yeast-based drug screening assay (control system showing lethality versus test system with drug added); format: cell-based; settings: among tested compounds; pharmaceutically acceptable concentrations
Experimental: In essence assay consists of control system in which one observes lethality and test system to which a drug is added and its effect is evaluated based on difference between control and test system. If drug enhances lethality or reverses it this drug is considered as a candidate drug that may be specific in the biochemical pathway controlled by primary and secondary genes.

glioblastoma cells [2] = test: growth, replication and phenotype of glioblastoma cells under continuous drug treatment; format: cell-based, human
glioblastoma cells [3] = test: tumorigenicity of treated tumor cells in athymic mice; format: in vivo

Q: What does the source list for O=C([O-])CCCc1ccccc1.[Na+] [phenylbutyrate, 4-phenylbutyrtic acid sodium salt]?
A: activity in yeast-based screening [1]: active at pharmaceutically acceptable concentrations; inhibition of growth (glioblastoma cells [2]; 4 mM, after 4-6 days of continuous treatment, glioblastoma cells): approximately 50%; tumor cell replication (glioblastoma cells [2]; glioblastoma cells, phenylacetate metabolites compared): inhibited tumor cell replication; cell maturation and phenotype (cytoskeletal intermediate filaments, anchorage-independence) (glioblastoma cells [2]; tumor cells): promoted cell maturation and reversion to a nonmalignant phenotype; tumorigenicity in athymic mice (glioblastoma cells [3]): reduced tumorigenicity
